According to paper PMC9532951, “Identification and characterization of a novel SNAT2 (SLC38A2) inhibitor reveals synergy with glucose transport inhibition in cancer cells” (Frontiers in Pharmacology, 2022):
“And” between values parts separate entries of the source, which are not always exact repeats. Identical values can stand only once.

Legend:
[1] = design: method as in Kopitz et al., 2016; conditions: mice, cancer therapeutic dose; ref Kopitz et al., 2016; cited from earlier work
HPAFII cells = assay: Growth assay (IncuCyte confluence), HPAFII; assay type: cell-based, human; design: key to Growth (Figure 6A) / cell confluence (Figure 6F): % confluence; conditions: Bay876 1uM, replicates 1-3
Description: (§1) Cells were seeded on 96-well flat bottom plates at approximately 3000 cells/well and incubated in growth medium (DMEM/F12 supplemented with 10% FBS, 2 mM glutamine) for 24 h. The next day, the growth medium was aspirated and exchanged with 300 μL/well of growth medium containing compounds at the indicated concentration. For live cell analysis, plates were placed in the IncuCyte system (Essen Bioscience), which was housed in a cell incubator (37°C, humidified atmosphere composed of 95% air and 5% CO2) and confluence measured at 6-h intervals or at the assay endpoint when untreated control cells reached a confluency >90%. Antibiotics (10 U/mL penicillin and 10 μg/ml streptomycin) were included in the treatment solutions.
(§2) Growth curves were generated using the Gompertz function of OriginPro software: y=ae^−e^(−k(x−xc))
(§3) Where a is the maximum confluence or upper asymptote, k is the growth rate coefficient, xc is the time point at which 50% confluence is reached (inflection point) and e is Euler’s number. Cell growth data are shown as % confluence.
(§4) Synergism between drug combinations was quantified using ZIP synergy scoring as calculated by SynergyFinder ([Yadav et al., 2015]).

SKOV3 xenografts = system: SKOV3 xenografts; design: method as in Ma et al., 2018; conditions: mice, ref Ma et al., 2018, cited from earlier work
MDA-MB-231 cells = assay: Growth assay (IncuCyte confluence), MDA-MB-231; assay type: cell-based, human; design: key to Growth (Figure 6A) / cell confluence (Figure 6F): % confluence; conditions: MDA-MB-231; Bay876 1uM; replicates 1-3
Description: as §1, §2, §3, §4

HCC1806 cells [2] = assay: Growth assay (IncuCyte confluence), HCC1806; assay type: cell-based, human; conditions: Bay876 alone
Description: as §1, §2, §3

GLUT1 [3] = target: T1, GLUT1 (Homo sapiens, UniProt P11166); assay: [14C]glucose uptake in SKOV3 cells; assay type: cell-based; design: endogenous in cells; host or cells: SKOV3 (A19)
T1 sequence (P11166 1-492): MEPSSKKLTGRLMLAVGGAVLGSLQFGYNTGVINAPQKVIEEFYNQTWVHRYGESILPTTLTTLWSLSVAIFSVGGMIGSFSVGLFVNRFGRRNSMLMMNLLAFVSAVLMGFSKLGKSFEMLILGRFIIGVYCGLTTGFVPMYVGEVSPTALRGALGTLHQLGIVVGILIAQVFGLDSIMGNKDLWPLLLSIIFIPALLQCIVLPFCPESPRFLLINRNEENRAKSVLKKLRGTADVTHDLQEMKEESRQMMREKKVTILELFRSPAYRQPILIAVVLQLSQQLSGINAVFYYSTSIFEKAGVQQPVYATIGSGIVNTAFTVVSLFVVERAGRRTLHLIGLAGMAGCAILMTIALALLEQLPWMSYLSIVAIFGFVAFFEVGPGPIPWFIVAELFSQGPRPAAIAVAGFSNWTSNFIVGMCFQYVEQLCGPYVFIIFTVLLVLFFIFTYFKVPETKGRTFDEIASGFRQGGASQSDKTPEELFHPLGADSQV
Description: (§5) […] Modified Hanks HEPES-buffered salts solution (mHBSS; 137 mM NaCl; 5.4 mM KCl; 2.7 mM K2HPO4; 1 mM CaCl2; 0.5 mM MgCl2; 0.44 mM KH2PO4; 0.4 mM MgSO4; 5 mM D-glucose; 5 mM HEPES; pH 7.4) was used to wash and incubate cells where sodium dependent transport was measured, while N-methyl-D-glucamine (NMDG) and potassium salts substituted sodium in NMDG mHBSS to measure sodium independent uptake. For the assay, cells were seeded in 35 mm dishes and, once confluent, […] of ≥2000 cpm/nmol ([…]). After 6 min, cells were washed thrice with ice-cold mHBSS, lysed with 500 µl of 0.1 M HCl, detached with a cell scraper and triturated. A 400 µl aliquot was used for scintillation counting, while the remainder was saved for protein mass quantification by Bradford assay. Transport rates were normalised to the protein content of the culture dish.

GLUT1 [4] = target: T1, GLUT1; assay: [14C]glucose uptake in MDA-MB-231 cells; assay type: cell-based; design: endogenous in cells; host or cells: MDA-MB-231 (A17)
HCC1806 cells [5] = assay: Assay of glycolytic activity (extracellular lactate); assay type: cell-based, human; conditions: > 0.1 μM Bay-876
Description: Glycolytic activity was measured by detecting extracellular lactate levels over a 48-h time course. HCC1806 and HPAFII cells were seeded on a 24-well plate at approximately 500,000 and 700,000 cells/well, respectively, and incubated in growth medium overnight. The following day, the growth medium was aspirated and each well was washed once with growth medium and 1.3 ml of the treatment solution was added to begin the time-course. In addition to sampling the medium at the start of the experiment, 50 μL was collected from each well at the following time points: 9, 24 and 48 h. Samples were stored at −20°C until further use. Lactate was detected by an enzymatic assay, which consisted of combining in microcentrifuge tubes: 5 μl of sample, 45 μl of water; 25 μl of 40 mM NAD^+; 421 μl of buffer (1M glycine, 600 mM hydrazine sulfate, 5.6 mM EDTA; adjusted to pH 9.5 with sodium hydroxide); and 4 μL of L-lactate dehydrogenase solved at 300U/mL (3.33 mg/ml). The tubes were briefly vortexed and incubated for 15 min before transferring 200 μL of the mixture to a 96-well plate. The calibration curve spanned final concentrations from 5 to 500 μM. Absorbance was measured at 340 nm to detect NADH. Lactate production was normalised to total cellular protein per well as measured by the Bradford assay.

HCC1806 cells [6] = assay: Glutamine in media supernatant by LC-MS (glutamine consumption); assay type: cell-based, human; conditions: Bay-876 1 μM
Description: Amino acids were analyzed with an Orbitrap Q-Exactive Plus coupled to an UltiMate 3000 RSLCnano system (Thermo Fisher) as described previously ([Gauthier-Coles et al., 2021]).

GLUT1 [7] = target: T1, GLUT1; assay: [14C]glucose uptake in HPAFII cells; assay type: cell-based; design: endogenous in cells; host or cells: MDA-MB-231 (A17), HPAFII (A18), SKOV3 (A19)
Description: as §5

B0AT1 (SLC6A19) = target: T2, B0AT1 (SLC6A19) (Homo sapiens, UniProt Q695T7); assay: Leucine uptake in CHO cells stably expressing human B0AT1 and collectrin; assay type: cell-based; conditions: 150 µM leucine, hit compounds at 30 µM, n = 3
T2 construct: expressed in transfected cells
T2 sequence (Q695T7 1-634): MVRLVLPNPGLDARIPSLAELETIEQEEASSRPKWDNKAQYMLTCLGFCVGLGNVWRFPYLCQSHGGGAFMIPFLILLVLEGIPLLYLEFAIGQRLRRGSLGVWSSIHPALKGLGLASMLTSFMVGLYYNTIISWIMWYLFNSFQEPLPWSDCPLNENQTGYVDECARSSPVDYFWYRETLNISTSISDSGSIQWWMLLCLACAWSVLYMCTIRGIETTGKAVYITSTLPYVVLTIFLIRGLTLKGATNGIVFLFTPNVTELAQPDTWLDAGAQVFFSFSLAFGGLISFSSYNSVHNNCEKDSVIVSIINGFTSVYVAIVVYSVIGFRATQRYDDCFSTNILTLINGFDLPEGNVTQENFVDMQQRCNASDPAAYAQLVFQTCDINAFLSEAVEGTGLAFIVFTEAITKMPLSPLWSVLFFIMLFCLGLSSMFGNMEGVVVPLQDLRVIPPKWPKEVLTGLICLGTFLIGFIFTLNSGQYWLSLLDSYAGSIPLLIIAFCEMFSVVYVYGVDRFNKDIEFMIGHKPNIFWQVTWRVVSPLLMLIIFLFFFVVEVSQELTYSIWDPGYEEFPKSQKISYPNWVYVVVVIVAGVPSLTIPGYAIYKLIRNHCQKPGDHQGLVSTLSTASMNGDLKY
T2 sequence (Q9HBJ8 15-222 partner): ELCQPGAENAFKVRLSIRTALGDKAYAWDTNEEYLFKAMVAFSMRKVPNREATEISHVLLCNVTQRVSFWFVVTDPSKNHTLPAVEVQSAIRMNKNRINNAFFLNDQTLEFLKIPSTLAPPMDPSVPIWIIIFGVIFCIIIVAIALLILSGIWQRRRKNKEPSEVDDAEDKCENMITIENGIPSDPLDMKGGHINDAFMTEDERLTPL

Row | Structure (SMILES) | oral availability and tolerability [1] | cell confluence (Figure 6F) (HPAFII cells) | lethality (SKOV3 xenografts; dose raised from 4.0 mg/kg/day to 7.5 mg/kg/day, 18-days treatment) | body weight (SKOV3 xenografts) | tumour growth (SKOV3 xenografts) | cell confluence (Figure 6F) (MDA-MB-231 cells) | growth of HCC1806 cells (HCC1806 cells [2]) | inhibition of glucose uptake (GLUT1 [3]; 1 µM, 100 µM glucose) | Glucose uptake (nmol / mg protein x 6 min) (GLUT1 [3]; SKOV3, 1uM) | inhibition of glucose uptake (GLUT1 [4]; 1 µM, 100 µM glucose) | Glucose uptake (nmol / mg protein x 6 min) (GLUT1 [4]; MDA-MB-231, 1uM) | lactate production (HCC1806 cells [5]) | glutamine consumption (HCC1806 cells [6]) | inhibition of glucose uptake (GLUT1 [7]; 1 µM, 100 µM glucose) | Glucose uptake (nmol / mg protein x 6 min) (GLUT1 [7]; HPAFII, 1uM) | Leucine uptake, Mean (B0AT1 (SLC6A19))
1 | Cc1c(NC(=O)c2cc(C(N)=O)nc3cc(F)ccc23)c(C(F)(F)F)nn1Cc1ccc(C#N)cc1 [Bay-876] | orally available and tolerated in mice | 97.55 and 97.2 and 90.5 | caused the death of all animals | did not reduce body weight | reduced the growth of SKOV3 xenografts | 97.85 and 98.65 and 98.1 | quite sensitive | inhibited glucose uptake to comparable levels as 2-DG | 2.054 nmol / mg protein x 6 min and 1.028 nmol / mg protein x 6 min and 1.361 nmol / mg protein x 6 min | inhibited glucose uptake to comparable levels as 2-DG | 4.491 nmol / mg protein x 6 min and 4.087 nmol / mg protein x 6 min and 3.799 nmol / mg protein x 6 min | blocked completely | accelerated | inhibited glucose uptake to comparable levels as 2-DG | 2.423 nmol / mg protein x 6 min and 2.258 nmol / mg protein x 6 min and 2.749 nmol / mg protein x 6 min | –
2 | CCNC(=O)/C=C/c1cccc(Br)c1 [Cinromide] | – | – | – | – | – | – | – | – | – | – | – | – | – | – | – | 19.8324 nmol / mg protein x 6 min
